Holding throughout (assay type): functional
Test [1] deals with Rattus norvegicus. Description: Compound was evaluated for mean % LSD correct responses at a dos e of 10 mg/kg in rats using drug discrimination assay.
Test [2] relates to Rattus norvegicus. In words: Compound was evaluated for mean % LSD correct responses at a dos e of 15 mg/kg in rats using drug discrimination assay.
In test [3] the test system is Rattus norvegicus. Description: Effective dose to cause hallucinogenic activity in rats using drug discrimination assay by intraperitoneal administration. To be noted: ip.
In test [4] the test system is Rattus norvegicus. In words: Compound was evaluated for mean % LSD correct responses at a dos e of 0.75 mg/kg in rats using drug discrimination assay.

In ChEMBL document CHEMBL1122748, “Synthesis and evaluation of substituted 2-phenylcyclobutylamines as analogues of hallucinogenic phenethylamines: lack of LSD-like biological activity” (1984) one finds LSD and ED50 data, which are given here for 7 molecules.

One may read the ED50 as the dose at which the effect has come halfway, by size or by number of responders. Low readings indicate greater potency, high ones weaker potency.

In test [1], `COc1cc(OC)c(C2CC[C@@H]2N)cc1OC` (stereo partly drawn) returned an LSD of 44%. In the case of `COc1cc(OC)c(C2CC[C@H]2N)cc1OC` (stereo partly drawn), the LSD in test [2] is reported as 28%. `COc1cc(C2CC2N)c(OC)cc1C` (stereo not drawn) showed an ED50 in test [3] of 0.163 mg/kg. This molecule also gave an LSD in test [4] of 93%. In test [1], `COc1cc(C2CC[C@@H]2N)c(OC)cc1C` (stereo partly drawn) displayed an LSD of 53%.

For `CCN(CC)C(=O)[C@@H]1C=C2c3cccc4[nH]cc(c34)C[C@H]2N(C)C1.O=C(O)C(O)C(O)C(=O)O`, in test [3], the ED50 was determined as 0.08 mg/kg. On to `COc1cc(C2CC2N)c(OC)cc1C.Cl` (stereo not drawn), for which the ED50 in test [3] came out at 20 mg/kg. Same read-out and setting: the result for `CCN(CC)C(=O)[C@@H]1C=C2c3cccc4[nH]cc(c34)C[C@H]2N(C)C1` [LYSERGIDE] reads 0.0077 mg/kg.
